Assay results taken from patent US12018011B2, “Macrocyclic compounds and compositions, and methods of preparing and using the same” (Kura Oncology, Inc., priority 2021, dated 2024).

How the values were obtained:
[1] = Metabolic stability in mouse liver microsomes; assay type: in vitro ADME; conditions: CD-1 mouse liver microsomes 0.5 mg protein/mL, test compound 1 μM, 37° C.; read-out: T1/2 in MLM
Protocol: (§1) The metabolic stability of the compounds disclosed herein was determined by measuring half-life (T1/2) of the compounds in the presence of mouse liver microsomes (MLM) or human liver microsomes (BILM).
(§2) Intermediate solution: 5 μL of compound and control stock solution (10 mM in dimethyl sulfoxide (DMSO)) were diluted with 495 μL of acetonitrile (ACN) (intermediate solution concentration: 100 μM, 99% ACN).
(§3) Working solution: 50 μL of compound and control intermediate solution (100 μM) were diluted with 450 μL of 100 mM potassium phosphate buffer (working solution concentration: 10 μM, 9.9% ACN).
(§4) Controls used in this assay: Testosterone, Diclofenac, and Propafenone.
(§5) Preparation Procedure: The appropriate amount of NADPH powder was weighed and diluted into a 10 mM MgCl2 solution (working solution concentration: 10 unit/mL; final concentration in reaction system: 1 unit/mL).
(§6) The appropriate concentrations of microsome working solutions were prepared in 100 mM potassium phosphate buffer.
(§7) Cold (4° C.) acetonitrile (CAN) containing 200 ng/mL tolbutamide and 200 ng/mL labetalol as internal standards (IS) was used as the stop solution.
(§8) Using an Apricot automation workstation, 10 μL/well of compound working solution were added to all 96-well reaction plates except the blank (T0, T5, T10, T20, T30, T60, and NCF60).
(§9) An Apricot automation workstation was used to add 80 μL/well of microsome solution to all reaction plates (Blank, T0, T5, T10, T20, T30, T60, and NCF60).
(§10) All reaction plates containing mixtures of compound and microsomes were pre-incubated at 37° C. for 10 minutes.
(§11) An Apricot automation workstation was used to add 10 μL/well of 100 mM potassium phosphate buffer to reaction plate NCF60.
(§12) Reaction plate NCF60 was incubated at 37° C. for 60 minutes.
(§13) After pre-incubation, an Apricot automation workstation was used to add 10 μL/well of NADPH regenerating system to every reaction plate except NCF60 (Blank, T0, T5, T10, T20, T30, and T60) to start the reaction. Final concentration of each component in incubation medium: Microsome (0.5 mg protein/mL); Test Compound (1 μM); Control Compound (1 μM); Acetonitrile (0.99%); DMSO (0.01%).
(§14) The reaction plates were incubated at 37° C. for 0 minute (T0, stop solution was added prior to microsome and NADPH solutions), 5 minutes (T5), 10 minutes (T10), 20 minutes (T20), 30 minutes (T30), 60 minutes (T60).
(§15) An Apricot automation workstation was used to add 300 μL/well of stop solution to each reaction plate at its appropriate end time point to terminate the reaction.
(§16) Each plate was sealed and shaken for 10 minutes.
(§17) After shaking, each plate was centrifuged at 4000 rpm and 4° C. for 20 minutes.
(§18) During centrifugation, an Apricot automation workstation was used to add 300 µL/well of HPLC grade water to eight new 96-well plates.
(§19) After centrifugation, an Apricot automation workstation was used to transfer 100 μL of supernatant from each reaction plate to its corresponding bioanaylsis plate.
(§20) Each bioanalysis plate was sealed and shaken for 10 minutes prior to LC-MS/MS analysis.
(§21) The equation of first order kinetics was used to calculate T1/2 and CLint(mic) (μL/min/mg).

[2] = biological target: T1, Recombinant human farnesyl transferase (FTase) (Homo sapiens, UniProt P49356); assay: FTase fluorescence assay (farnesylation of dansyl-GCVLS peptide); assay type: biochemical; conditions: recombinant human FTase 2.5 nM, Dansyl-GCVLS 85 nM, FPP 30 nM, 30° C., 50 minutes
T1 construct: purchased Crelux (Martinsried, Germany)

[3] = Metabolic stability in human liver microsomes; assay type: in vitro ADME; conditions: human liver microsomes 0.5 mg protein/mL, test compound 1 μM, 37° C.; read-out: T1/2 in HLM
Protocol: as §1, §2, §3, §4, §5, §6, §7, §8, §9, §10, §11, §12, §13, §14, §15, §16, §17, §18, §19, §20, §21

T24/83 cells = assay: T24/83 cell proliferation assay (CellTiter-Glo); assay type: cell-based; conditions: Homo sapiens, 96 h, 4 days
From the text: T24/83 cell line was purchased from the European Collection of Authenticated Cell Cultures (Salisbury, UK). Recombinant human farnesyl transferase (FTase) and geranylgeranyl transferase type-1 (GGTase) were obtained from Crelux (Martinsried, Germany). Dansyl labelled GCVLS peptide was purchased from Bachem (Torrance, CA), and Dansyl labelled GCVLL peptide was purchased from Bio Synthesis (Lewisville, TX). Farnesyl Pyrophosphate (FPP) and Geranylgeranyl pyrophosphate (GGPP) were purchased from Cayman (Ann Arbor, MI).
Mutant oncogenic HRAS was originally identified in a human bladder carcinoma cell line called T24. T24/83 is a subline of T24 established more recently that has more favorable growth characteristics for in vitro assays. Thus, T24/83 is a well-characterized mutant HRAS-dependent cell line that is an ideal model for quantifying the HRAS-dependent antitumor activity of farnesyltransferase inhibitors.
T24/83 cells were inoculated into 384 well plates at 100 cells/well, and grown in the presence of inhibitor, 0.7% DMSO as a negative control, or 100 μM tipifarnib as a positive control, at 37° C. for 4 days. Cell viability was assessed using the CellTiter-Glo Kit (CTG) (Promega; Madison, WI). Luminescence was recorded using EnVision microplate reader (PerkinElmer; Waltham, MA). In this assay, tipifarmib was used as a positive control. All the assay plates passed the QC criteria (S/B, Z-factor).

Structure (SMILES) | half-life at 1 μM [1] [min] | IC50 [2] [nM] | half-life at 1 μM [3] [min] | IC50 (T24/83 cells) [nM]
Cn1cncc1[C@@]1(O)c2ccc(Cl)c(c2)OCCc2cccc(c2)-c2cc(=O)n(C3CC3)c3ccc1cc23 [(S)-29, (S)-4^4-chloro-2^1-cyclopropyl-3-hydroxy-3-(1-methyl-1H-imidazol-5-yl)-2^1,2^2-dihydro-5-oxa-2(4,6)-quinolina-1,4(1,3)-dibenzenacycloheptaphan-2^2-one] | < 5 | ≤ 10 | < 30 | 50 to 500
[2H]C([2H])([2H])n1c(=O)cc2c3cc(ccc31)[C@@](O)(c1cncn1C)c1ccc(Cl)c(c1)OCCc1cccc-2c1 [(S)-28, (S)-4^4-chloro-3-hydroxy-2^1-(methyl-d3)-3-(1-methyl-1H-imidazol-5-yl)-2^1,2^2-dihydro-5-oxa-2(4,6)-quinolina-1,4(1,3)-dibenzenacycloheptaphan-2^2-one] | < 5 | ≤ 10 | < 30 | ≤ 50
Cn1cnnc1[C@@]1(N)c2ccc(Cl)c(c2)OCCc2cccc(c2)-c2cc(=O)n(C3CC3)c3ccc1cc23 [(S)-35, (S)-3-amino-4^4-chloro-2^1-cyclopropyl-3-(4-methyl-4H-1,2,4-triazol-3-yl)-2^1,2^2-dihydro-5-oxa-2(4,6)-quinolina-1,4(1,3)-dibenzenacycloheptaphan-2^2-one] | < 5 | ≤ 10 | < 30 | 50 to 500
Cn1cncc1[C@@]1(N)c2ccc(Cl)c(c2)OCCc2cccc(c2)-c2cc(=O)n(C3CC3)c3ccc1cc23 [(S)-30, (S)-3-amino-4^4-chloro-2^1-cyclopropyl-3-(1-methyl-1H-imidazol-5-yl)-2^1,2^2-dihydro-5-oxa-2(4,6)-quinolina-1,4(1,3)-dibenzenacycloheptaphan-2^2-one] | < 5 | ≤ 10 | < 30 | 50 to 500
Cn1cncc1[C@@]1(N)c2ccc(C#N)c(c2)COc2cccc(c2)-c2cc(=O)n(CC(O)CO)c3ccc1cc23 (stereo partly drawn) [(S)-69, (3S)-3-amino-2^1-(2,3-dihydroxypropyl)-3-(1-methyl-1H-imidazol-5-yl)-2^2-oxo-2^1,2^2-dihydro-6-oxa-2(4,6)-quinolina-1,4(1,3)-dibenzenacyclohexaphane-4^4-carbonitrile] |  | ≤ 10 |  | > 500
Cn1cncc1C1(O)c2ccc(C#N)c(c2)COc2cccc(c2)-c2cc(C(N)=O)nc3ccc1cc23 (stereo not drawn) [Compound 73, 4^4-cyano-3-hydroxy-3-(1-methyl-1H-imidazol-5-yl)-6-oxa-2(4,6)-quinolina-1,4(1,3)-dibenzenacyclohexaphane-2^2-carboxamide] |  | 10 to 100 |  | 50 to 500
Cn1cncc1[C@@]1(O)c2ccc(C#N)c(c2)OCCc2cccc(c2)-c2cc(=O)n(C)c3ccc1cc23 [(S)-36, (S)-3-hydroxy-2^1-methyl-3-(1-methyl-1H-imidazol-5-yl)-2^2-oxo-2^1,2^2-dihydro-5-oxa-2(4,6)-quinolina-1,4(1,3)-dibenzenacycloheptaphane-4^4-carbonitrile] | 5 to 15 | ≤ 10 | < 30 | ≤ 50
Cn1cnnc1[C@@]1(N)c2ccc(C#N)c(c2)OCCc2cccc(c2)-c2cc(=O)n(C)c3ccc1cc23 [(S)-39, (S)-3-amino-2^1-methyl-3-(4-methyl-4H-1,2,4-triazol-3-yl)-2^2-oxo-2^1,2^2-dihydro-5-oxa-2(4,6)-quinolina-1,4(1,3)-dibenzenacycloheptaphane-4^4-carbonitrile] | > 15 | ≤ 10 | > 100 | ≤ 50
Cn1cncc1[C@@]1(N)c2ccc(C#N)c(c2)OCc2cccc(c2)-c2cc(=O)n(C)c3ccc1cc23 [(S)-19, (S)-3-amino-2^1-methyl-3-(1-methyl-1H-imidazol-5-yl)-2^2-oxo-2^1,2^2-dihydro-5-oxa-2(4,6)-quinolina-1,4(1,3)-dibenzenacyclohexaphane-4^4-carbonitrile] |  | ≤ 10 |  | ≤ 50
Cn1cncc1C1(O)c2ccc(Cl)c(c2)CCOc2cccc(c2)-c2cc(=O)n(C)c3ccc1cc23 (stereo not drawn) [Compound 65, 4^4-chloro-3-hydroxy-2^1-methyl-3-(1-methyl-1H-imidazol-5-yl)-2^1,2^2-dihydro-7-oxa-2(4,6)-quinolina-1,4(1,3)-dibenzenacycloheptaphan-2^2-one] | 5 to 15 | ≤ 10 | < 30 | 50 to 500

Now from value to molecule:

half-life at 1 μM [1] [min] | IC50 [2] [nM] | half-life at 1 μM [3] [min] | IC50 (T24/83 cells) [nM] | Structure (SMILES)
> 15 | ≤ 10 | > 100 | ≤ 50 | Cn1cncc1C1(O)c2ccc(Cl)c(c2)COc2cccc(c2)-c2cc(=O)n(C)c3ccc1cc23 (stereo not drawn) [Compound 45, 4^4-chloro-3-hydroxy-2^1-methyl-3-(1-methyl-1H-imidazol-5-yl)-2^1,2^2-dihydro-6-oxa-2(4,6)-quinolina-1,4(1,3)-dibenzenacyclohexaphan-2^2-one]
< 5 | ≤ 10 | < 30 | 50 to 500 | Cn1cncc1[C@@]1(O)c2ccc(Cl)c(c2)OCCc2cccc(c2)-c2cc(=O)[nH]c3ccc1cc23 [(S)-25, (S)-4^4-chloro-3-hydroxy-3-(1-methyl-1H-imidazol-5-yl)-2^1,2^2-dihydro-5-oxa-2(4,6)-quinolina-1,4(1,3)-dibenzenacycloheptaphan-2^2-one]
 | ≤ 10 |  | 50 to 500 | Cn1cncc1C1(O)c2ccc(Cl)c(c2)COc2cccc(c2)-c2cc(=O)[nH]c3ccc1cc23 (stereo not drawn) [Compound 44, 4^4-chloro-3-hydroxy-3-(1-methyl-1H-imidazol-5-yl)-2^1,2^2-dihydro-6-oxa-2(4,6)-quinolina-1,4(1,3)-dibenzenacyclohexaphan-2^2-one]
 | ≤ 10 |  | 50 to 500 | Cn1cncc1C1(O)c2ccc(Cl)c(c2)OCCc2cccc(c2)-c2cc(=O)[nH]c3ccc1cc23 (racemic) [Compound 25, (rac)-4^4-chloro-3-hydroxy-3-(1-methyl-1H-imidazol-5-yl)-2^1,2^2-dihydro-5-oxa-2(4,6)-quinolina-1,4(1,3)-dibenzenacycloheptaphan-2^2-one]
 | 10 to 100 |  | 50 to 500 | Cn1cncc1C1(O)c2ccc(Cl)c(c2)OCc2cccc(c2)-c2cc(=O)[nH]c3ccc1cc23 (stereo not drawn) [Compound 13, 4^4-chloro-3-hydroxy-3-(1-methyl-1H-imidazol-5-yl)-2^1,2^2-dihydro-5-oxa-2(4,6)-quinolina-1,4(1,3)-dibenzenacyclohexaphan-2^2-one]
